How the values were obtained:
MM2-CK1ε = assay: kinase activity of Myc-MM2-CK1ε mutant immunoprecipitated from transfected N2a cells; assay type: cell-based; settings: DHPG 100 μM 2 min, in the absence or presence of cyclosporin A
Experimental: (§1) Neuroblastoma N2a cells were cultured to 50–60% confluence in DMEM containing 5% fetal bovine serum. Four μg of the expression plasmid for HA-CK1ε or myc-MM2-CK1ε was transfected into N2a cells in 100 mm dishes using FuGENE6™. Twenty-four hours after transfection, cells were incubated at room temperature in phosphate-buffered Kreb's-Henseleit solution (Sigma) for 10 min and then with or without inhibitors for 30 min before treating with (S)-3,5-DHPG, for 2 min. Cells were then lysed in 1 ml of radio-immunoprecipitation (RIPA) buffer containing 1% NP-40, 150 mM NaCl, 0.1% SDS, 50 mM Tris, pH 8.0, 5 mM Na3VO4, 20 mM NaF, 20 mM β-glycerol-phosphate and protease inhibitors. Lysates were centrifuged at 10,000 g, and supernatants were used for immunoprecipitation and kinase assay.
For immunoprecipitation of CK1ε from N2a cells, lysates (1 mg of total protein) were precleared with 5 μl of mouse IgG (ICN) and 50 μl of protein A agarose for 30 min. Five μl (approximately 2 μg) of anti-HA or anti-myc antibody was added and samples were incubated for 1 h at 4° C. Five μl of anti-mouse rabbit IgG and 50 μl of protein A agarose were then added for 45 min. […]
CK1 assays were performed in a 30 μl assay volume with 2 μg of purified DARPP-32, 500 μM ATP and 5 μCi γ-^32P-ATP. […] Results were quantified using a Molecular Dynamics PHOSPHORIMAGER™. […]

HA-CK1ε = assay: 32P metabolic labeling and two-dimensional phosphopeptide mapping of HA-CK1ε in N2a cells; assay type: cell-based; settings: DHPG 2 or 4 min; returned to 0 min level at ten min
HA-tagged CK1ε = assay: kinase activity of HA-CK1ε immunoprecipitated from transfected N2a cells, DARPP-32 as substrate; assay type: cell-based
Experimental: Neuroblastoma N2a cells were cultured in DMEM containing 5% fetal bovine serum (FBS) to 50–60% confluency. Four micrograms of the expression plasmid for HA-CK1ε were transfected into N2a cells in 100 mm dishes using FuGENE™ 6. Twenty-four hours after transfection, cells were incubated in phosphate-buffered Krebs-Henseleit solution (Sigma) for 10 minutes at room temperature. Cells were then incubated with or without CKI inhibitor for 30 minutes before treating with the group I mGluR agonist (S)-3,5-DHPG (100 μM) for 2 minutes. Cells were then lysed in one ml of lysis buffer containing 1% Nonidet P-40 (NP-40), 150 mM NaCl, 0.1% SDS, 50 mM Tris (pH 8.0), 5 mM Na3VO4, 20 mM NaF, 20 mM β-glycerol-phosphate and protease inhibitors. Lysates were centrifuged at 10,000 g and supernatants were used for immunoprecipitation and kinase assay.
For immunoprecipitation of CKI from N2a cells, lysates (1 mg of total protein) were pre-cleared with 5 μl of mouse IgG and 50 μl of protein A agarose for 30 minutes. Five μl of anti-HA antibody were added and samples were incubated for 1 hour at 4° C. Five μl of anti-mouse rabbit IgG and 50 μl of protein A agarose were then added for 45 minutes. Immuno-complexes were washed three times in lysis buffer, two times in kinase buffer (30 mM Hepes (pH 7.5), 7 mM MgCl2, 0.5 mM DTT). CKI assays were performed in a 30 μl assay volume with 2 μg of purified DARPP-32, 500 μM ATP and 5 μCi γ-^32P-ATP. Samples were incubated at 30° C. for 20 minutes, reactions were stopped by addition of SDS-sample buffer, and samples were boiled for 5 minutes. Samples were separated by SDS-PAGE (12% polyacrylamide). SDS-PAGE gels were dried and exposed to Kodak film for autoradiography. Bands were quantified by analysis using a Molecular Dynamics PhosphorImager.
as §1
For immunoprecipitation of CK1ε from N2a cells, lysates (1 mg of total protein) were precleared with 5 μl of mouse IgG (ICN) and 50 μl of protein A agarose for 30 min. Five μl (approximately 2 μg) of anti-HA or anti-myc antibody was added and samples were incubated for 1 h at 4° C. Five μl of anti-mouse rabbit IgG and 50 μl of protein A agarose were then added for 45 min. Immuno-complexes were washed 3 times in lysis buffer and 2 times in kinase buffer (30 mM Hepes, pH 7.5, 7 mM MgCl2, 0.5 mM DTT).
CK1 assays were performed in a 30 μl assay volume with 2 μg of purified DARPP-32, 500 μM ATP and 5 μCi γ-^32P-ATP. Reactions were started by addition of the ATP. Samples were incubated at 30° C. for 10 min and reactions were stopped by addition of SDS-sample buffer and boiled for 5 min. Samples were separated by SDS-PAGE (12% polyacrylamide). SDS-PAGE gels were dried and exposed to Kodak film for autoradiography. Results were quantified using a Molecular Dynamics PHOSPHORIMAGER™. Immunoprecipitation and assay of Cdk5 were performed as disclosed (20).

[1] = tested on: Thr75 of DARPP-32 (Cdk5 site); assay: DARPP-32 phospho-Thr75 immunoblot in neostriatal slices; assay type: cell-based, mouse
Experimental: Neostriatal slices were prepared from male C57/BL6 mice (6–8 weeks old) in accordance with methods known in the art (Nishi, A. et al. 1997, J. Neurosci. 17:8147–8155). Slices were treated with a drug. After drug treatment, slices were immediately frozen in liquid nitrogen, and stored at −80° C. until assayed.
Frozen slices were sonicated in hot homogenization buffer containing 1% SDS and 50 mM NaF, and samples were boiled for 10 minutes. SDS-PAGE sample buffer was then added and samples were boiled for 5 minutes. Samples (approximately 120 μg of total protein) were separated by SDS-PAGE (10% polyacrylamide) and then transferred to nitrocellulose. In most studies, immunoblots were first probed with anti-phospho-Ser137 DARPP-32 antibody. The blots were then stripped and probed with anti-phospho-Thr75 DARPP-32 antibody. Blots were stripped again and probed with anti-total DARPP-32 antibody. […] Chemiluminescence was detected by autoradiography and bands were quantified by analysis of scanned images using NIH IMAGE 1.52 software. Data were statistically analyzed by Student's t test in Microsoft EXCEL™ software as indicated.
Neostriatal slices were prepared from male C57/BL6 mice (6–8 weeks old) as disclosed (22). Slices were treated with drugs as specified in the text and figure legends. After drug treatment, slices were immediately frozen in liquid nitrogen, and stored at −80° C. until assayed.
Frozen slices were sonicated in hot homogenization buffer containing 1% SDS and 50 mM NaF, and samples were boiled for 10 min. SDS-PAGE sample buffer was then added and samples were boiled for 5 min. Samples (approximately 120 μg protein) were separated by SDS-PAGE (10% polyacrylamide) and transferred to nitrocellulose. Immunoblots were first probed with antiphospho-Ser-137 DARPP-32 antibody. The blots were stripped and probed with anti-phosphoThr-75 DARPP-32 antibody. Blots were stripped again and probed with anti-total DARPP-32 antibody. Antibody binding was detected by enhanced chemiluminescence (ECL) using X-ray film, and images were analyzed by laser scanning densitometry using NIH Image 1.52 software. Data were statistically analyzed by Student's t-test using Microsoft EXCEL™ software as indicated.

Row | Structure (SMILES) | effect on MM2-CK1ε activity (MM2-CK1ε) | effect on phosphorylation state of CK1ε (subset of acidic phosphopeptides) (HA-CK1ε) | effect on CK1ε activity (HA-tagged CK1ε; DHPG 100 μM for 2 min) | increase in CKI activity compared to the basal level (HA-tagged CK1ε; DHPG 100 μM for 2 minutes) | increase in phosphorylation of Thr75 ([1]; DHPG 100 μM, group I mGluR activation) | effect on phosphorylation of Thr75 in DARPP-32 ([1]; slices treated with drug alone: DHPG 100 μM, ionomycin 2 μM) | effect of pre-incubation on the ability of DHPG to increase CK1ε activity (HA-tagged CK1ε; 30 min before DHPG 100 μM 2 min, CKI-7 100 μM, L-AP3 100 μM, U73122 10 μM, BAPTA/AM 20 μM, cyclosporin A 1 μM) | effect on basal or DHPG-stimulated DARPP-32 phosphorylation at Thr75 ([1]; 50 μM CKI-7, 30 min before DHPG 2 min) | effect on basal and DHPG-stimulated DARPP-32 phosphorylation at Thr75 ([1]; CKI-7 100 to 300 μM, 30 min before DHPG 2 min)
1 | N[C@H](C(=O)O)c1cc(O)cc(O)c1 [DHPG, (S)-3,5-Dihydroxyphenylglycine] | no effect | rapid and transient dephosphorylation | increase | approximately 2 fold | 2–3 fold | rapid but transient increase | – | – | –
2 | NCCNS(=O)(=O)c1ccc(Cl)c2ccncc12 [CKI-7] | – | – | – | – | – | – | blocked | little effect | dose-dependent decreases

— patent US7129073B2, “Regulation of neuronal function through metabotropic glutamate receptor signaling pathways” (The Rockefeller University, priority 2001, dated 2006)
